Blank lines part the entries; values can stand above or below the compound they belong to.
Columns and labels:
[1] = tested on: HepG2; assay: Anticancer activity against human HepG2 cells assessed as reduction in cell viability; format: functional, cell-based
[2] = tested on: HeLa; assay: Cytotoxicity against human HeLa cells assessed as reduction in cell growth incubated for 72 hrs by MTT assay; format: functional, cell-based
[3] = tested on: HeLa; assay: Antiproliferative activity against human HeLa cells assessed cell growth reduction incubated for 48 hrs by MTT assay; format: functional, cell-based
[4] = tested on: HeLa; assay: Antiproliferative activity against human HeLa cells assessed as reduction in cell viability by MTT assay; format: functional, cell-based
[5] = tested on: A2780; assay: Cytotoxicity against human A2780 cells assessed as reduction in cell viability incubated for 72 hrs by MTS assay; format: functional, cell-based; conditions: A2780, 72 h
[6] = tested on: MIA PaCa-2; assay: Cytotoxicity against human MIA PaCa-2 cells assessed as reduction in cell viability incubated for 72 hrs by MTS assay; format: functional, cell-based; conditions: MIA PaCa-2, 72 h
[7] = tested on: K562; assay: Cytotoxicity against human K562 cells assessed as reduction in cell viability incubated for 72 hrs by MTS assay; format: functional, cell-based; conditions: K562, 72 h
[8] = tested on: JIMT-1; assay: Antiproliferative activity against human JIMT-1 cells assessed as reduction in cell viability incubated for 72 hrs by MTS assay; format: functional, cell-based; conditions: JIMT-1, 72 h
[9] = tested on: HCT-116; assay: Cytotoxicity against human HCT-116 cells assessed as reduction in cell viability incubated for 72 hrs by MTS assay; format: functional, cell-based; conditions: HCT-116, 72 h
[10] = tested on: HCT-116; assay: Growth inhibition of human HCT-116 cells; format: functional
[11] = tested on: HepG2; assay: Cytotoxicity against human HepG2 cells; format: functional, cell-based
[12] = tested on: HepG2; assay: Antiproliferative activity against human HepG2 cells assessed as reduction in cell growth; format: functional, cell-based
[13] = tested on: HL-60; assay: Cytotoxicity against human HL-60 cells assessed as reduction in cell viability incubated for 48 hrs by MTT assay; format: functional, cell-based; conditions: HL-60, 48 h
[14] = tested on: HeLa; assay: Cytotoxicity against human HeLa cells assessed as reduction in cell viability after 72 hrs by MTS assay; format: functional, cell-based
[15] = tested on: A2780cisR; assay: Antiproliferative activity against human cisplatin-resistant A2780 cells assessed as reduction in cell viability incubated for 72 hrs by MTS assay; format: functional, cell-based
[16] = tested on: HepG2; assay: Antiproliferative activity against human HepG2 cells assessed as inhibition of cell growth relative to control; format: functional; set-up: scale not given: the % may be the effect or the level left
[17] = tested on: HCT-116; assay: Growth inhibition of human HCT-116 cells measured for 48 hrs by SRB assay; format: functional
[18] = tested on: SW480; assay: Cytotoxicity against human SW480 cells assessed as reduction in cell viability incubated for 72 hrs by celltiter glo assay; format: functional, cell-based; conditions: SW480, 72 h

SMILES: COc1cc(CCc2ccc(OC(F)F)c(NC(=O)CN)c2)cc(OC)c1OC
IC50 [2]: 70 nM

SMILES: CN(c1ccc2c(ccn2C)n1)c1nc(Cl)nc2ccccc12
IC50 [5]: 0.24 nM
IC50 [6]: 0.24 nM
IC50 [7]: 0.24 nM
IC50 [8]: 0.24 nM

SMILES: CN(c1ccc2c(c1)c1ccccc1n2C)c1cc(Cl)nc2ccccc12
IC50 [9]: 16 nM

SMILES: COc1ccc(CCc2cc(OC)c(OC)c(OC)c2)cc1OC(=O)c1cncc(Cl)c1
IC50 [11]: 32.4 nM

SMILES: COc1ccc(CCc2cc(OC)c(OC)c(OC)c2)cc1OC(=O)CCC(=O)Oc1cc(CCc2cc(OC)c(OC)c(OC)c2)ccc1OC
IC50 [13]: 82 nM

SMILES: COc1ccc(CCc2cc(OC)c(OC)c(OC)c2)cc1OC(=O)CCCCCNC(=O)CCCC[C@@H]1SC[C@@H]2NC(=O)N[C@@H]21
IC50 [14]: 26 nM

SMILES: Cc1cc(N(C)c2ccc3c(n2)OCCO3)c2ccccc2n1
IC50 [9]: 20 nM
IC50 [15]: 0.28 nM

SMILES: COc1ccc(CCc2cc(OC)c(OC)c(OC)c2)cc1OC(=O)CCCC[C@H]1SC[C@H]2NC(=O)N[C@H]21
IC50 [14]: 494 nM

SMILES: COc1ccc(N(C)c2cc(C)nc3ccccc23)nc1N
IC50 [9]: 1 nM

SMILES: Cc1nc(N(C)c2ccc3c(c2)c2ccccc2n3C)c2ccccc2n1
IC50 [9]: 2 nM

SMILES: COc1ccc(CCc2cc(OC)c(OC)c(OC)c2)cc1OC(=O)c1cncc(Br)c1
IC50 [11]: 13.5 nM

SMILES: COc1ccc(/C=C\c2cc(OC)c(OC)c(OC)c2)cc1O [COMBRETASTATIN A4]
IC50 [18]: 270 nM

SMILES: COc1cc(CCc2ccc(OC(F)F)c(OP(=O)(O)O)c2)cc(OC)c1OC
IC50 [2]: 110 nM

SMILES: COc1ccc(C(C)c2cc(OC)c(OC)c(OC)c2)cc1N (stereo not drawn)
GI50 [10]: 60 nM
GI50 [17]: 28 nM

SMILES: COc1cccc2c(N(C)c3ccc4c(c3)c3ccccc3n4C)cc(C)nc12
IC50 [9]: 21 nM

SMILES: CN(c1ccc2c(ccn2C)c1)c1cc(C(F)(F)F)nc2ccccc12
IC50 [9]: 3 nM

SMILES: COc1cc(CCc2ccc(OC(F)F)c(O)c2)cc(OC)c1OC
IC50 [18]: 180 nM

SMILES: CN(c1ccc2c(c1)c1ccccc1n2C)c1nc(Cl)nc2ccccc12
IC50 [9]: 1 nM

SMILES: COc1ccc(CCc2cc(OC)c(OC)c(OC)c2)cc1OC(=O)CCC(=O)O
IC50 [13]: 48 nM

More lines, main results first:

IC50 [1]: > 500 nM
SMILES: COc1ccc(CCc2cc(OC)c(OC)c(OC)c2)cc1OC(=O)c1cccnc1

IC50 [3]: 130 nM
SMILES: COc1cc(CCc2ccc(OC(C)(F)F)cc2[N+](=O)[O-])cc(OC)c1OC

IC50 [1]: > 500 nM
SMILES: COc1ccc(CCc2cc(OC)c(OC)c(OC)c2)cc1OC(=O)c1cscn1

IC50 [1]: > 500 nM
SMILES: COc1ccc(CCc2cc(OC)c(OC)c(OC)c2)cc1OC(=O)c1c[nH]c2ccccc12

IC50 [4]: 200 nM
SMILES: CCOc1ccc(CCc2cc(OC)c(OC)c(OC)c2)cc1N

GI50 [10]: 60 nM
SMILES: COc1ccc(C(C)c2cc(OC)c(OC)c(OC)c2)nc1 (stereo not drawn)

IC50 [1]: > 500 nM
SMILES: COc1ccc(CCc2cc(OC)c(OC)c(OC)c2)cc1OC(=O)c1cncnc1

IC50 [12]: > 2000 nM
SMILES: CCCOc1ccc(CCc2cc(OC)c(OC)c(OC)c2)cc1O

GI50 [10]: 29 nM
SMILES: COc1cc(C(C)c2ccc3c(ccn3C)c2)cc(OC)c1OC (stereo not drawn)

IC50 [3]: 110 nM
SMILES: COc1cc(CCc2ccc(OC(C)(F)F)cc2)cc(OC)c1OC

IC50 [15]: 0.24 nM
SMILES: Cc1cc(N(C)c2ccc3c(c2)c2ccccc2n3C)c2ccccc2n1
IC50 [5]: 0.28 nM
IC50 [6]: 0.28 nM
IC50 [7]: 0.28 nM
IC50 [8]: 0.28 nM

IC50 [4]: 110 nM
SMILES: CCOc1ccc(CCc2cc(OC)c(OC)c(OC)c2)cc1O

GI50 [10]: 100 nM
SMILES: COc1ccc(C(C)c2cc(C)c(OC)c(OC)c2)cc1OP(=O)(O)O (stereo not drawn)

IC50 [1]: > 500 nM
SMILES: COc1ccc(CCc2cc(OC)c(OC)c(OC)c2)cc1OC(=O)c1ccsc1

IC50 [12]: 72.8 nM
SMILES: COc1cc(CCc2ccc(OCCF)c(O)c2)cc(OC)c1OC
Activity [16]: 80.94%

GI50 [10]: 30 nM
GI50 [17]: 30 nM
SMILES: COc1ccc(C(c2cc(OC)c(OC)c(OC)c2)C(F)F)cc1O (stereo not drawn)

IC50 [3]: 50 nM
SMILES: COc1cc(CCc2ccc(C(C)(F)F)cc2NC(=O)CN)cc(OC)c1OC

IC50 [1]: > 500 nM
SMILES: COc1ccc(CCc2cc(OC)c(OC)c(OC)c2)cc1OC(=O)c1ccoc1

GI50 [17]: 300 nM
SMILES: COc1cc(OC)cc(C(C)c2ccc(OC)c(N)c2)c1 (stereo not drawn)

IC50 [4]: 160 nM
SMILES: COc1ccc(CCc2cc(OC)c(OC)c(OC)c2)cc1N

IC50 [12]: > 500 nM
SMILES: COc1cc(CCc2ccc(OC(=O)CCn3cc(F)c(=O)[nH]c3=O)c(O)c2)cc(OC)c1OC

IC50 [3]: 460 nM
SMILES: COc1cc(CCc2ccc(OC(C)(F)F)cc2N)cc(OC)c1OC

IC50 [1]: > 500 nM
SMILES: COc1ccc(CCc2cc(OC)c(OC)c(OC)c2)cc1OC(=O)c1ccnnc1

IC50 [1]: > 500 nM
SMILES: COc1ccc(CCc2cc(OC)c(OC)c(OC)c2)cc1OC(=O)c1cnc(C)nc1

GI50 [17]: 6000 nM
SMILES: CCOc1cc(C(C)c2ccc(OC)c(N)c2)ccc1OC (stereo not drawn)

GI50 [17]: 6000 nM
SMILES: COc1ccc(Cc2cc(OC)c(OC)c(OC)c2)cc1O

GI50 [10]: 50 nM
GI50 [17]: 50 nM
SMILES: COc1ccc(C(CC#N)c2cc(OC)c(OC)c(OC)c2)cc1O (stereo not drawn)

From ChEMBL document CHEMBL5543061, “Recent advances of antitumor leading compound Erianin: Mechanisms of action and structural modification” (Eur J Med Chem, 2023)
